In patent US20250319046A1, “PHENYLALANINE-BASED LAT1 INHIBITORS AND USES THEREOF” (MAXYMUNE THERAPEUTICS, INC., priority 2024, published 2025) one finds IC50 data, which are given here for 37 compounds.

SMILES strings stand for the structures.

This assay concerns the target LAT1 (Homo sapiens (Human), UniProt Q01650). As to the kind of experiment: LAT1 uptake inhibition assay: [3H]-gabapentin competition uptake in LN229 cells. In kind it is cell-based. Particulars: [3H]-gabapentin uptake, 15 min incubation in PBS, read-out: IC50, the concentration of test compound at which the [3H]-GP uptake was inhibited by 50%. On the procedure: LAT1 Uptake Inhibition Assay
The ability of compounds to interact with LAT1 was measured using a radiolabeled competition uptake assay with [^3H]-Gabapentin ([^3H]-GP) (Perkin Elmer) in 96-well plates with LN229 cells (ATCC®). Ten (10)×10^3 (10,000) cells/well were plated in white, clear bottom plates and were allowed to grow for three (3) days. On the fourth day, the cells were washed and then incubated with 50,000 counts per minute (cpm) of [^3H]-GP in phosphate buffered saline (PBS) (VWR International) with increasing concentrations of test compounds in at least triplicate for 15 min. At end of the assay time, the incubation solution was removed, and plates were washed three times (3×) with 100 μL of ice-cold PBS buffer. One-hundred fifty (150) […] of scintillation fluid (VWR International) was added to each well, and the radioactivity retained within the cells was measured on a 96-well scintillation counter. Background uptake ([^3H]-GP uptake in the presence of 10 mM non-radiolabeled gabapentin (GP)) (MedKoo) was subtracted and data were normalized to the DMSO control ([^3H]-GP uptake in the absence of any competitor). Data were fitted to the Michaelis-Menten equation using GraphPad Prism (Version 8.2.0).

LAT1, sequence (Q01650 whole entry): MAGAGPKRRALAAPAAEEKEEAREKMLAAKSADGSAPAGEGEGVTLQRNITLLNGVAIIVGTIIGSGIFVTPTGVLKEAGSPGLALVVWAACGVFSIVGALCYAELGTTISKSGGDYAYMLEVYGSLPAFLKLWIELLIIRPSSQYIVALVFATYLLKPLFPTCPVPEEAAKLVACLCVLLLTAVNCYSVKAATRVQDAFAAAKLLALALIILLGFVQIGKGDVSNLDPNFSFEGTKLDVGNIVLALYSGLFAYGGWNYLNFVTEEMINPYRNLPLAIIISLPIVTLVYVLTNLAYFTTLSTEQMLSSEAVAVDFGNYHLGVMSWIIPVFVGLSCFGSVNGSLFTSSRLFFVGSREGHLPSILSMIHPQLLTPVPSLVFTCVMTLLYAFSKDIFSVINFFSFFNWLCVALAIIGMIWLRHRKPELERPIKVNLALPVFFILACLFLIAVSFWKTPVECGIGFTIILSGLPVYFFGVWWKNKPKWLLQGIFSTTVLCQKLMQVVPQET
LAT1, sequence (P08195 whole entry partner): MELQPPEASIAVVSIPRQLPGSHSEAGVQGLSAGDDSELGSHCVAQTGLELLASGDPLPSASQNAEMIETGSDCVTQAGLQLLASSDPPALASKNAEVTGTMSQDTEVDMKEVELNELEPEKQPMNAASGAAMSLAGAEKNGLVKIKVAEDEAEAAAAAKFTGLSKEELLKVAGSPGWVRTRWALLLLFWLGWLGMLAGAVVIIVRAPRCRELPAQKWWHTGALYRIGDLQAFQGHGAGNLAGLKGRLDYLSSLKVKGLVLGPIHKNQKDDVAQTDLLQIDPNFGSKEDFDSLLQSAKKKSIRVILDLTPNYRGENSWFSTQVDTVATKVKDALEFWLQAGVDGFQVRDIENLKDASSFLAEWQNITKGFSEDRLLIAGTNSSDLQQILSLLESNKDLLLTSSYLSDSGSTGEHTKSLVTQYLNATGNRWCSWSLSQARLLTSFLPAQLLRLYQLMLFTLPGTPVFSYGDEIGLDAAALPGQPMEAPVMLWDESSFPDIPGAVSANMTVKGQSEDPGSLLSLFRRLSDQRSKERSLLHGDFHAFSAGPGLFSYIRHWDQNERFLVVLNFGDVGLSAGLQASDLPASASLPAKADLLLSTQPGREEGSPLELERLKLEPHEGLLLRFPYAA

Consider `Cc1ccc(SCc2ccccc2)cc1C[C@H](N)C(=O)O` [Compound 59, (S)-2-Amino-3-(5-(benzylthio)-2-methylphenyl)propanoic Acid], for which the IC50 lay within 0.1 to 1 µM.
Then `CC(C)c1ccc(NS(=O)(=O)c2cccc3c(N(C)C)cccc23)cc1C[C@@H](N)C(=O)O` [Compound 34, (R)-2-Amino-3-(5-((5-(dimethylamino)naphthalene)-1-sulfonamido)-2-isopropylphenyl)propanoic Acid], with 1 to 10 µM; and `Cc1ccc(NS(=O)(=O)c2c(Cl)cccc2Cl)cc1C[C@H](N)C(=O)O` [Compound 42, (S)-2-Amino-3-(5-((2,6-dichlorophenyl)sulfonamido)-2-methylphenyl)propanoic Acid], with 0.1 to 1 µM.
On to `Cc1ccc(S(=O)(=O)Nc2ccccc2Br)cc1C[C@H](N)C(=O)O` [Compound 75, (S)-2-Amino-3-(5-(N-(2-bromophenyl)sulfamoyl)-2-methylphenyl)propanoic Acid], for which the IC50 lay within 0.1 to 1 µM.
Then `Cc1ccc(S(=O)(=O)Nc2ccc(C)c(C[C@H](N)C(=O)O)c2)cc1` [Compound 7, (S)-2-Amino-3-(2-methyl-5-((4-methylphenyl)sulfonamido)phenyl)propanoic Acid], with 0.1 to 1 µM; and `COc1ccc(NS(=O)(=O)c2cccc3c(N(C)C)cccc23)cc1C[C@H](N)C(=O)O` [Compound 5, (S)-2-Amino-3-(5-((5-(dimethylamino)naphthalene)-1-sulfonamido)-2-methoxyphenyl)propanoic Acid], with 0.1 to 1 µM.
For `CN(C)c1cccc2c(S(=O)(=O)Nc3cccc(C[C@H](N)C(=O)O)c3)cccc12` [Compound 3, (S)-2-Amino-3-(3-((5-(dimethylamino)naphthalene)-1-sulfonamido)phenyl)propanoic Acid], the IC50 was 0.1 to 1 µM.
Then `Cc1ccc(NS(=O)(=O)c2c(Cl)cc(C(F)(F)F)cc2Cl)cc1C[C@H](N)C(=O)O` [Compound 36, (S)-2-Amino-3-(5-((2,6-dichloro-4-(trifluoromethyl)phenyl)sulfonamido)-2-methylphenyl)propanoic Acid], with 1 to 10 µM; and `Cc1ccc(NS(=O)(=O)c2csc3ccccc23)cc1C[C@H](N)C(=O)O` [Compound 27, (S)-2-Amino-3-(5-(benzo[b]thiophene-3-sulfonamido)-2-methylphenyl)propanoic Acid], with 0.1 to 1 µM; and `N[C@@H](Cc1cc(Cl)c(NS(=O)(=O)c2ccccc2)c(Cl)c1)C(=O)O` [Compound 47, (S)-2-Amino-3-(3,5-dichloro-4-(phenylsulfonamido)phenyl)propanoic Acid], with no less than 10 µM.
Then `CN(C)c1cccc2c(S(=O)(=O)Nc3ccccc3C[C@H](N)C(=O)O)cccc12` [Compound 19, (S)-2-Amino-3-(2-((5-(dimethylamino)naphthalene)-1-sulfonamido)phenyl)propanoic Acid], with 0.1 to 1 µM; and `Cc1ccc(NS(C)(=O)=O)cc1C[C@H](N)C(=O)O` [Compound 67, (S)-2-Amino-3-(2-methyl-5-(methylsulfonamido)phenyl)propanoic Acid], with no less than 10 µM.
As to `Cc1ccc(NS(=O)(=O)c2cc(Cl)cc(Cl)c2)cc1C[C@H](N)C(=O)O` [Compound 43, (S)-2-Amino-3-(5-((3,5-dichlorophenyl)sulfonamido)-2-methylphenyl)propanoic Acid], the IC50 lay in the range of 0.1 to 1 µM.
Then `N[C@@H](Cc1ccc(S(=O)(=O)Nc2ccc(Cl)cc2)cc1)C(=O)O` [Compound 80, (S)-2-Amino-3-(4-(N-(4-chlorophenyl)sulfamoyl)phenyl)propanoic Acid], with 1 to 10 µM.
Then `CS(=O)(=O)Nc1ccc(C[C@H](N)C(=O)O)cc1` [Compound 70, (S)-2-Amino-3-(4-(methylsulfonamido)phenyl)propanoic Acid], with no less than 10 µM; and `Cc1ccc(NS(=O)(=O)c2cccc3c(N(C)C)cccc23)cc1C[C@H](N)C(=O)O` [Compound 2, (S)-2-Amino-3-(5-((5-(dimethylamino)naphthalene)-1-sulfonamido)-2-methylphenyl)propanoic Acid], with 0.1 to 1 µM.
Then `Cc1ccc(S(=O)(=O)N(c2ccc(C)c(C[C@H](N)C(=O)O)c2)S(=O)(=O)c2ccc(C)cc2)cc1` [Compound 48, (S)-2-Amino-3-(2-methyl-5-((4-methyl-N-tosylphenyl)sulfonamido)phenyl)propanoic Acid], with 0.1 to 1 µM.
For `Cc1ccc(NS(=O)(=O)c2c[nH]cn2)cc1C[C@H](N)C(=O)O` [Compound 31, (S)-3-(5-(1H-imidazole-4-sulfonamido)-2-methylphenyl)-2-aminopropanoic Acid], the IC50 is no less than 10 µM.
Regarding `Cc1ccc([S+]([O-])Cc2ccccc2)cc1C[C@H](N)C(=O)O` (stereo partly drawn) [Compound 64, (2S)-2-Amino-3-(5-(benzylsulfinyl)-2-methylphenyl)propanoic Acid], the IC50 was 1 to 10 µM.
Then `CNS(=O)(=O)c1cccc(C[C@H](N)C(=O)O)c1` [Compound 72, (S)-2-Amino-3-(3-(N-methylsulfamoyl)phenyl)propanoic Acid], with no less than 10 µM.
Then `Cc1ccc(S(=O)(=O)Nc2ccc(Cl)cc2)cc1C[C@@H](N)C(=O)O` [Compound 51, (R)-2-Amino-3-(5-(N-(4-chlorophenyl)sulfamoyl)-2-methylphenyl)propanoic Acid], with no less than 10 µM; and `CN(C)c1cccc2c(S(=O)(=O)Nc3ccc(Cl)c(C[C@H](N)C(=O)O)c3)cccc12` [Compound 15, (S)-2-Amino-3-(2-chloro-5-((5-(dimethylamino)naphthalene)-1-sulfonamido)phenyl)propanoic Acid], with 0.1 to 1 µM.
Then `Cc1ccc(CS(=O)(=O)Cc2ccccc2)cc1C[C@H](N)C(=O)O` [Compound 56, (S)-2-Amino-3-(5-((benzylsulfonyl)methyl)-2-methylphenyl)propanoic Acid], with 0.1 to 1 µM; and `N[C@@H](Cc1cccc(S(N)(=O)=O)c1)C(=O)O` [Compound 71, (S)-2-Amino-3-(3-sulfamoylphenyl)propanoic Acid], with no less than 10 µM.
As for `Cc1ccc(CNS(=O)(=O)c2ccccc2)cc1C[C@H](N)C(=O)O` [Compound 69, (S)-2-Amino-3-(2-methyl-5-(phenylsulfonamidomethyl)phenyl)propanoic Acid], the IC50 was 0.1 to 1 µM.
Then `Cc1ccc(NS(=O)(=O)c2cccc3ncccc23)cc1C[C@H](N)C(=O)O` [Compound 9, (S)-2-Amino-3-(2-methyl-5-(quinoline-5-sulfonamido)phenyl)propanoic Acid], with 1 to 10 µM; and `CN(C)S(=O)(=O)c1cccc(C[C@H](N)C(=O)O)c1` [Compound 73, (S)-2-Amino-3-(3-(N,N-dimethylsulfamoyl)phenyl)propanoic Acid], with 1 to 10 µM.
Then `CS(=O)(=O)Nc1ccccc1C[C@H](N)C(=O)O` [Compound 1, (S)-2-Amino-3-(2-(methylsulfonamido)phenyl)propanoic Acid], with no less than 10 µM; and `Cc1ccc(S(=O)(=O)Nc2ccc(Cl)c(Cl)c2)cc1C[C@H](N)C(=O)O` [Compound 83, (S)-2-Amino-3-(5-(N-(3,4-dichlorophenyl)sulfamoyl)-2-methylphenyl)propanoic Acid], with 0.1 to 1 µM.
Then `CC(=O)Nc1ccc(S(=O)(=O)Nc2ccc(C)c(C[C@H](N)C(=O)O)c2)c2ccccc12` [Compound 13, (S)-3-(5-((4-Acetamidonaphthalene)-1-sulfonamido)-2-methylphenyl)-2-aminopropanoic Acid], with 1 to 10 µM.
On to `Cc1ccc(S(=O)(=O)Nc2cccc3ncccc23)cc1C[C@H](N)C(=O)O` [Compound 50, (S)-2-Amino-3-(2-methyl-5-(N-(quinolin-5-yl)sulfamoyl)phenyl)propanoic Acid], for which the IC50 fell in the range of 0.1 to 1 µM.
Then `Cc1ccc(S(=O)(=O)Nc2cc(C[C@H](N)C(=O)O)cc(NS(=O)(=O)c3ccc(C)cc3)c2)cc1` [Compound 63, (S)-2-Amino-3-(3,5-bis((4-methylphenyl)sulfonamido)phenyl)propanoic Acid], with 1 to 10 µM.
Then `CS(=O)(=O)Nc1cc(C[C@H](N)C(=O)O)cc(NS(C)(=O)=O)c1` [Compound 61, (S)-2-Amino-3-(3,5-di(methylsulfonamido)phenyl)propanoic Acid], with no less than 10 µM.
Then `Cc1ccc(NS(=O)(=O)C2CCOCC2)cc1C[C@H](N)C(=O)O` [Compound 12, (S)-2-Amino-3-(2-methyl-5-((tetrahydro-2H-pyran)-4-sulfonamido)phenyl)propanoic Acid], with 1 to 10 µM; and `Cc1ccc(NS(=O)(=O)C2CCCCC2)cc1C[C@H](N)C(=O)O` [Compound 26, (S)-2-Amino-3-(5-(cyclohexanesulfonamido)-2-methylphenyl)propanoic Acid], with 0.1 to 1 µM; and `Cc1ccc(NS(=O)(=O)Cc2ccccc2)cc1C[C@H](N)C(=O)O` [Compound 23, (S)-2-Amino-3-(2-methyl-5-((phenylmethyl)sulfonamido)phenyl)propanoic Acid], with 0.1 to 1 µM.
`N[C@@H](Cc1cccc(NS(=O)(=O)c2ccccc2)c1)C(=O)O` [Compound 37, (S)-2-Amino-3-(3-(phenylsulfonamido)phenyl)propanoic Acid]: the IC50 fell in the range of 0.1 to 1 µM.
